Results on 20 compounds are retold here after US11707462B2, “Checkpoint kinase 1 (CHK1) inhibitors and uses thereof” (Boundless Bio, Inc., priority 2021, dated 2023).

Assay [1] concerns the target T1, Full-length human Chk1 protein (Homo sapiens, UniProt O14757).
T1 construct: purchased Carna Biosciences, Inc. 02-117
T1 sequence (O14757 1-476): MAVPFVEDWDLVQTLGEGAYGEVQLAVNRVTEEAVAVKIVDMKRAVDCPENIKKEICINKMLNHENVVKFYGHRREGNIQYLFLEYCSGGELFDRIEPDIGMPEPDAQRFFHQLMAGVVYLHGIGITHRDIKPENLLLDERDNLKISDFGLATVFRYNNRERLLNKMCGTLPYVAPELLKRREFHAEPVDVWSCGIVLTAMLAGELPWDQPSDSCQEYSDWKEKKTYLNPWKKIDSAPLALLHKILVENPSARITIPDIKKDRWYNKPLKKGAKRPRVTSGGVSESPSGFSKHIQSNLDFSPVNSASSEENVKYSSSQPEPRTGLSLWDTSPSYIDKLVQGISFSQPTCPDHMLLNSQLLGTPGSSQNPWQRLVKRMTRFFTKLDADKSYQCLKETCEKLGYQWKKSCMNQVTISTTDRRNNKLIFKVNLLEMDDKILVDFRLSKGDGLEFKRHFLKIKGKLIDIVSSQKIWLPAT
Put plainly: Kinase HTRF biochemical assay (HTRF KinEASE), Chk1 enzyme activity. Particulars: full-length human Chk1, ATP 1 mM, 60 minutes at room temperature. How it is done: Example A: Kinase HTRF Biochemical Assay
Chk1 enzyme activity was measured using an HTRF KinEASE assay (Cisbio, catalog no. 62ST1PEC). Full-length human Chk1 protein (GenBank accession number NP_001265.1) was obtained from Carna Biosciences, Inc. (Kobe, Japan, catalog no. 02-117). The enzyme reaction was carried out in assay buffer containing (final concentrations): Chk1 enzyme (0.012 ng/μL), MgCl2 (5 mM) and DTT (1 mM). To determine compound dose response, DMSO stock solutions were serially diluted in a 10-point concentration series in duplicate. Compound solution (50 nL) was added to 384-well assay plates (Greiner, catalog no. 784075). To each well containing compound solution was added assay buffer solution (5 μL). Plates were centrifuged at 1000 rpm for 1 minute, then incubated at room temperature for 10 minutes. The reaction was started by addition of substrate buffer (5 μL/well) containing (final concentrations): STK substrate 1-biotin (120 nM) and ATP (1 mM). Assay plates were centrifuged at 1000 rpm for 1 minute, then incubated at room temperature for 60 minutes. The reaction was stopped by addition of detection buffer (Cisbio, 10 μL) containing (final concentrations): STK antibody-cryptate (0.25 nM) and streptavidin-XL665 (7.5 nM). Plates were centrifuged at 1000 rpm for 1 minute, then incubated at 25° C. for 2 hours. HTRF signal was read on an EnVision multimode plate reader […] in HTRF mode. Data were fit to dose-response curves using XLfit (IDBS, Surrey, UK) or Prism (GraphPad Software, La Jolla, Calif., US) to calculate IC50 values for each compound tested.
In general terms: Time-resolved FRET reads energy transfer from a long-lived donor to a nearby acceptor.

The test system of a further assay is p-CHK1 (Ser345). Description: AlphaLISA SureFire Ultra p-CHK1 (Ser345) cellular assay in HT29 cells. It counts as cell-based. Particulars: Homo sapiens, HT-29, 16 h at 37° C. How it is done:
Example B: AlphaLisa Cellular Assay
Compound activity in cells was measured using an AlphaLISA® SureFire® Ultra™ p-CHK1 (Ser345) assay (Perkin Elmer, catalog no. ALSU-PCHK1-A10K). HT29 cells were cultured in McCoy 5A medium with 10% FBS and 1% penicillin-streptomycin and seeded to 96-well plates (Corning, catalog no. 3599). Compounds were serially diluted in DMSO over a 10-point dose range with 3-fold dilution and to each well containing cells was added compound solution. Plates were centrifuged at 1000 rpm for 30 seconds. Plates were incubated at 37° C. for 16 h. Supernatant was removed by flicking the plate against a paper towel. Wells were washed once with PBS solution. To each well was added freshly prepared lysis buffer and plates were agitated on a plate shaker at 400 rpm for 30 min. The 96-well cell plates were centrifuged at 1500 rpm for 1 minute. From each well was transferred 10 μL of the lysates to a 384-well Optiplate™ (Perkin Elmer, catalog no. 6007290). To each well was added Acceptor Mix (5 μL) and the plates were sealed and wrapped in foil. Plates were agitated on a plate shaker for 2 minutes, then incubated at room temperature for 1 h. To each well was added Donor Mix (5 μL) and the plates were sealed and wrapped in foil. Plates were agitated on a plate shaker for 2 minutes, then incubated at room temperature for 1 h. AlphaLisa signal was read on an EnVision multimode plate reader (Perkin Elmer). Data were fit to dose-response curves using XLfit (IDBS, Surrey, UK) or Prism (GraphPad Software, La Jolla, Calif., US) to calculate IC50 values for each compound tested.

Molecules are shown by their SMILES. pIC50: −log10 of the molar value.

One may read the pIC50 as the negative decadic logarithm of the IC50, by convention in mol/L. With `N#Cc1cnc(Nc2cc(-c3ncccc3O[C@@H]3CC[C@@H](N)C3)[nH]n2)cn1` (stereo in doubt) [Example 1-59, 5-((5-(3-(((1R,3R)-3-aminocyclopentyl)oxy)pyridin-2-yl)-1H-pyrazol-3-yl)amino)pyrazine-2-carbonitrile], the figures for the pIC50 (in assay [1]; in the assay on p-CHK1 (Ser345)) were 6.30 to 7.00 and less than 6.00, respectively.
For `N#Cc1cnc(Nc2cc(-c3c(O[C@@H]4CC[C@H](N)C4)ccc(F)c3F)[nH]n2)cn1` [Example 3-18, 5-((5-(6-(((1R,3S)-3-aminocyclopentyl)oxy)-2,3-difluorophenyl)-1H-pyrazol-3-yl)amino)pyrazine-2-carbonitrile], in that order: 7.00 to 8.00 and 6.30 to 7.00.
The like results for `N#Cc1cnc(Nc2cc(-c3ncccc3O[C@@H]3CC[C@@H](N)C3)[nH]n2)cn1` [Example 1-58, 5-((5-(3-(((1R,3R)-3-aminocyclopentyl)oxy)pyridin-2-yl)-1H-pyrazol-3-yl)amino)pyrazine-2-carbonitrile] were, in that order, no less than 8.00 and no less than 7.30.
`CN[C@@H]1CC[C@@H](Oc2cc(C)cc(F)c2-c2cc(Nc3cnc(C#N)cn3)n[nH]2)C1` [Example 5-3, 5-((5-(2-fluoro-4-methyl-6-(((1R,3R)-3-(methylamino)cyclopentyl)oxy)phenyl)-1H-pyrazol-3-yl)amino)pyrazine-2-carbonitrile]: the figures for the negative logarithm of the IC50 (pIC50) (in assay [1]; with p-CHK1 (Ser345)) were no less than 8.00 and no less than 7.30, respectively.
The like results for `N#Cc1cnc(Nc2cc(-c3c(O[C@@H]4CC[C@@H](N)C4)ccc(Cl)c3F)[nH]n2)cn1` [Example 3-29, 5-((5-(6-(((1R,3R)-3-aminocyclopentyl)oxy)-3-chloro-2-fluorophenyl)-1H-pyrazol-3-yl)amino)pyrazine-2-carbonitrile] were, in that order, no less than 8.00 and 6.30 to 7.00.
The like results for `CN[C@@H]1CC[C@@H](Oc2ccccc2-c2cc(Nc3cnc(C#N)cn3)n[nH]2)C1` [Example 1-42, 5-((5-(2-(((1R,3R)-3-(methylamino)cyclopentyl)oxy)phenyl)-1H-pyrazol-3-yl)amino)pyrazine-2-carbonitrile] were, in that order, 7.00 to 8.00 and 7.00 to 7.30.
The like results for `COc1ccc(C)c(O[C@@H]2CC[C@H](N)C2)c1-c1cc(Nc2cnc(C#N)cn2)n[nH]1` [Example 4-3, 5-((5-(2-(((1R,3S)-3-aminocyclopentyl)oxy)-6-methoxy-3-methylphenyl)-1 H-pyrazol-3-yl)amino)pyrazine-2-carbonitrile] were, in that order, 6.30 to 7.00 and less than 6.00.
Regarding `N#Cc1cnc(Nc2cc(-c3c(O[C@@H]4CC[C@H](N)C4)ccc(Cl)c3F)[nH]n2)cn1` [Example 3-19, 5-((5-(6-(((1R,3S)-3-aminocyclopentyl)oxy)-3-chloro-2-fluorophenyl)-1H-pyrazol-3-yl)amino)pyrazine-2-carbonitrile], the results for the pIC50 (in assay [1]; in the assay with p-CHK1 (Ser345)) were 7.00 to 8.00 and less than 6.00, respectively.
The like results for `N#Cc1cnc(Nc2cc(-c3c(F)cccc3O[C@@H]3CC[C@H](N)C3)[nH]n2)cn1` [Example 1-22, 5-((5-(2-(((1R,3S)-3-aminocyclopentyl)oxy)-6-fluorophenyl)-1H-pyrazol-3-yl)amino)pyrazine-2-carbonitrile] were, in that order, 7.00 to 8.00 and 6.30 to 7.00.
For `COc1cccc(O[C@@H]2CCCC[C@H](N)C2)c1-c1cc(Nc2cnc(C#N)cn2)n[nH]1` [Example 3-8, 5-((5-(2-(((1R,3S)-3-aminocycloheptyl)oxy)-6-methoxyphenyl)-1H-pyrazol-3-yl)amino)pyrazine-2-carbonitrile], in that order: no less than 8.00 and no less than 7.30.
For `Cc1ccc(O[C@@H]2CC[C@@H](N)C2)c(-c2cc(Nc3cnc(C#N)cn3)n[nH]2)c1F` [Example 3-26, 5-((5-(6-(((1R,3R)-3-aminocyclopentyl)oxy)-2-fluoro-3-methylphenyl)-1H-pyrazol-3-yl)amino)pyrazine-2-carbonitrile], the negative-log IC50 (pIC50) in assay [1] was no less than 8.00; in the assay with p-CHK1 (Ser345), no less than 7.30.
The like results for `N#Cc1cnc(Nc2cc(-c3ncccc3O[C@H]3CC[C@@H](N)C3)[nH]n2)cn1` [Example 3-42, 5-((5-(3-(((1S,3R)-3-aminocyclopentyl)oxy)pyridin-2-yl)-1H-pyrazol-3-yl)amino)pyrazine-2-carbonitrile] were, in that order, 7.00 to 8.00 and 6.30 to 7.00.
The like results for `CN[C@@H]1CC[C@@H](Oc2cc(Cl)cc(F)c2-c2cc(Nc3cnc(C#N)cn3)n[nH]2)C1` [Example 3-25, 5-((5-(4-chloro-2-fluoro-6-(((1R,3R)-3-(methylamino)cyclopentyl)oxy)phenyl)-1H-pyrazol-3-yl)amino)pyrazine-2-carbonitrile] were, in that order, 7.00 to 8.00 and 6.30 to 7.00.
Turning to `N#Cc1cnc(Nc2cc(-c3c(F)cc(Cl)cc3O[C@@H]3CC[C@@H](N)C3)[nH]n2)cn1` [Example 3-30, 5-((5-(2-(((1R,3R)-3-aminocyclopentyl)oxy)-4-chloro-6-fluoropheny)-1H-pyrazol-3-yl)amino)pyrazine-2-carbonitrile], the negative logarithm of the IC50 (pIC50) in assay [1] was no less than 8.00; in the assay with p-CHK1 (Ser345), 6.30 to 7.00.
For `CN[C@@H]1CC[C@@H](Oc2ccc(C)c(F)c2-c2cc(Nc3cnc(C#N)cn3)n[nH]2)C1` [Example 3-20, 5-((5-(2-fluoro-3-methyl-6-(((1R,3R)-3-(methylamino)cyclopentyl)oxy)phenyl)-1H-pyrazol-3-yl)amino)pyrazine-2-carbonitrile], in that order: no less than 8.00 and no less than 7.30.
For `CCOc1cccc(O[C@@H]2CC[C@H](N)C2)c1-c1cc(Nc2cnc(C#N)cn2)n[nH]1` [Example 1-23, 5-((5-(2-(((1R,3S)-3-aminocyclopentyl)oxy)-6-ethoxyphenyl)-1H-pyrazol-3-yl)amino)pyazine-2-carbonitrile], in that order: 7.00 to 8.00 and 6.30 to 7.00.
For the compound `COc1cc(F)cc(O[C@@H]2CC[C@H](N)C2)c1-c1cc(Nc2cnc(C#N)cn2)n[nH]1` [Example 1-28, 5-((5-(2-(((1R,3S)-3-aminocyclopentyl)oxy)-4-fluoro-6-methoxyphenyl)-1H-pyrazol-3-yl)amino)pyrazine-2-carbonitrile], the pIC50 in assay [1] was no less than 8.00; in the assay with p-CHK1 (Ser345), no less than 7.30.
The like results for `N#Cc1cnc(Nc2cc(-c3ccccc3O[C@@H]3CC[C@H](N)C3)[nH]n2)cn1` [Example 1-52, 5-((5-(2-(((1R,3S)-3-aminocyclopentyl)oxy)phenyl)-1H-pyrazol-3-yl)amino)pyrazine-2-carbonitrile] were, in that order, 7.00 to 8.00 and 6.30 to 7.00.
Consider `Cc1ccc(O[C@H]2C[C@H](N)C2)c(-c2cc(Nc3cnc(C#N)cn3)n[nH]2)n1` [Example 1-62, 5-((5-(3-((1r,3r)-3-aminocyclobutoxy)-6-methylpyridin-2-yl)-1H-pyrazol-3-yl)amino)pyrazine-2-carbonitrile], for which the figures for the negative-log IC50 (pIC50) (in assay [1]; in the assay on p-CHK1 (Ser345)) were 7.00 to 8.00 and 6.30 to 7.00, respectively.
As to `CN[C@H]1CC[C@H](Oc2cccc(OC)c2-c2cc(Nc3cnc(C#N)cn3)n[nH]2)CC1` [Example 1-45, 5-((5-(2-methoxy-6-(((1r,4r)-4-(methylamino)cyclohexyl)oxy)phenyl)-1H-pyrazol-3-yl)amino)pyrazine-2-carbonitrile], the negative-log IC50 (pIC50) in assay [1] was no less than 8.00; in the assay on p-CHK1 (Ser345) it was 7.00 to 7.30.
